This is an account of results in BindingDB's records for patent US20240383915 (Genentech, 2024).

The target in this assay is GTPase KRas (Homo sapiens, UniProt P01116). The experiment in a line: KRAS Biochemical Assay. The procedure: KRAS Biochemical Assay—BODIPY-GDP Exchange TR-FRET. Biochemical compound potencies were assessed by evaluating inhibition of SOS1-mediated nucleotide exchange in KRAS G12D. The SOS1-promoted exchange of fluorescently-labeled GDP (BODIPY-GDP) was monitored by time-resolved fluorescence resonance energy transfer (TR-FRET). Compounds solubilized in DMSO were dispensed as concentration series into 384-well white assay plates. […] The reaction was initiated with the addition of 5 μL of 3 nM recombinant human SOS1 and 300 nM BODIPY-GDP in assay buffer. […] The TR-FRET ratio was determined as the fluorescence at 520 nm divided by the fluorescence at 490 nm multiplied by 10,000. […] The normalized TR-FRET results were plotted against compound concentration, and the data fit to a 4-parameter Hill equation to determine the IC50 values.
Sequence of GTPase KRas (P01116 whole entry): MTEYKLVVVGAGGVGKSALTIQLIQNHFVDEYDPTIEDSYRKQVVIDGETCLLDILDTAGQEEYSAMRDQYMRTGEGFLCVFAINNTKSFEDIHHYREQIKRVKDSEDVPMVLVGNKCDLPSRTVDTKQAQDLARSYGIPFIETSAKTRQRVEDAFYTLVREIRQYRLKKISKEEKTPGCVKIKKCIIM

The compound `Cc1cc(N)nc(-c2c(Cl)c3c4c(nc(OCC56CC(CO5)C6)nc4c2F)N([C@H](C)c2cccnc2N)CCO3)c1C(F)(F)F` [US20240383915, Example 143] registered an IC50 of 0.87 nM.
